Measurements from patent publication US9790169B2, “IDO inhibitors” (BRISTOL-MYERS SQUIBB COMPANY, priority 2015, dated 2017).

Molecular target: human IDO1 (Homo sapiens, UniProt P14902)
Test: Assessment of human IDO-1 inhibitory activity in HEK cells (human IDO1/HEK293 cells, kynurenine read-out with Ehrlich reagent, absorbance 490 nm)
Assay type: cell-based
Design: expressed in transfected cells
Conditions: HEK Human IDO-1 cellular assay
How it was run: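 Kynurenine output from stably IDO1-transfected HEK293 cells (10,000/well, phenol red-free RPMI, 10% FBS) after 20 h compound exposure at 37 °C. The reaction was stopped with 0.2% TCA and heated 30 min at 50 °C, then the supernatant was mixed with Ehrlich reagent and read at 490 nm. IC50 was set against DMSO and a 500 nM reference standard as 0 and 100% inhibition.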

Chain of human IDO1 (P14902 whole entry): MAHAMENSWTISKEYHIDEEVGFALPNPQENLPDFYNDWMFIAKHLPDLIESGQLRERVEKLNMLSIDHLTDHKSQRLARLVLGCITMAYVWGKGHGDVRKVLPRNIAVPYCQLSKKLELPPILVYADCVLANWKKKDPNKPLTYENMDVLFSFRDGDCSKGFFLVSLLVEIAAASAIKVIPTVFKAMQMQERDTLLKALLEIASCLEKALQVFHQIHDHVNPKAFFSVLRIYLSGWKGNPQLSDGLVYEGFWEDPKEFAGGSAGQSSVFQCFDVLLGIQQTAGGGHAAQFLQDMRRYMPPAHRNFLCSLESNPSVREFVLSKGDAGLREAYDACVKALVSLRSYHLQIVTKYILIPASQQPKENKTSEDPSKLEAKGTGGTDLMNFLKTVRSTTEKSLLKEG

IC50 [nM]	SMILES
< 50	CCC(CC(=O)O)c1cc(F)c(N(CC(C)C)CC(C)C)c(NC(=O)Nc2ccccc2Cl)c1 (racemic) [Example 975, (+/−)-3-(3-(3-(2-chlorophenyl)ureido)-4-(diisobutylamino)-5-fluorophenyl)pentanoic acid]
< 5	CC[C@H](CC(=O)O)c1ccc(N(CC(C)(C)O)C2CCCCC2)c(Nc2ccc(Cl)cc2)c1 (single isomer, unassigned) [Example 242]
< 5	CCc1ccc(Nc2cc(C(CC)CC(=O)O)ccc2N(CC(C)C)C2CCCCC2)cc1 (single isomer, unassigned) [Example 309, 3-(4-(cyclohexyl(isobutyl)amino)-3-((4-ethylphenyl)amino)phenyl)pentanoic acid]
> 50	CCOc1ncc(Nc2cc(C(C)CC(=O)O)ccc2N2CCC[C@H]2C(C)(C)O)cn1 (single isomer, unassigned) [Example 800]
< 50	CCC(CC(=O)O)c1ccc(N(CC(C)C)C2CCCCC2)c(Nc2ccc(Cl)c(OCC(F)(F)F)c2)c1 (single isomer, unassigned) [Example 644, 3-(3-((4-chloro-3-(2,2,2-trifluoroethoxy)phenyl)amino)-4-(cyclohexyl (isobutyl)amino)phenyl) pentanoic acid]
> 50	CCC(CC(=O)O)c1ccc(N2CCC[C@H]2C(C)(C)F)c(NC(=O)Nc2ccc(C)cc2)c1 (single isomer, unassigned) [Example 792]
< 50	CCC(CC(=O)O)c1ccc(N2CCC[C@@H]2C(C)(C)O)c(Nc2ccc(Cl)cc2)c1 (single isomer, unassigned) [Example 773]
> 50	CCN(c1ccc([C@@H](COC)CC(=O)O)cc1NC(=O)Nc1ccc(OC)nc1)C1CCOCC1 (single isomer, unassigned) [Example 426]
< 5	CC[C@@H](CC(=O)O)c1ccc(N(CC(C)(C)O)C2CCOCC2)c(Nc2ccc(Cl)cc2)c1 (single isomer, unassigned) [Example 198]
< 5	CCN(c1ccc(C(C)(C)CC(=O)O)cc1Nc1cnc(OCC2CC2)nc1)C1CCOCC1 [Example 163, 3-(3-((2-(cyclopropylmethoxy)pyrimidin-5-yl)amino)-4-(ethyl (tetrahydro-2H-pyran-4-yl)amino)phenyl)-3-methylbutanoic acid]
> 50	CC(CC(=O)O)c1ccc(N(CC(C)(C)O)C2CCCCC2)c(Nc2ccc(Cl)c(OCC(F)(F)F)c2)c1 (single isomer, unassigned) [Example 51, 3-(3-((4-chloro-3-(2,2,2-trifluoroethoxy)phenyl)amino)-4-(cyclohexyl(2-hydroxy-2-methylpropyl)amino)phenyl)butanoic acid]
< 50	CCC(CC(=O)O)c1ccc(N2CCC[C@H]2C(C)(C)O)c(Nc2ccc(F)cc2)c1 (single isomer, unassigned) [Example 840]
< 5	CCC(CC(=O)O)c1ccc(N(CC(C)C)C2CCCCC2)c(Nc2ccc(Cl)cc2)c1 (single isomer, unassigned) [Example 308, 3-(3-((4-chlorophenyl)amino)-4-(cyclohexyl (isobutyl)amino)phenyl) pentanoic acid]
> 50	COCC(CC(=O)O)c1ccc(N(CC(C)C)C2CCOCC2)c(NC(=O)Nc2ccc(C)cc2)c1 (single isomer, unassigned) [Example 1209, 3-(4-(Isobutyl(tetrahydro-2H-pyran-4-yl)amino)-3-(3-(p-tolyl)ureido)phenyl)-4-methoxybutanoic acid]
< 50	CCN(c1ccc(C(C)CC(=O)O)cc1NC(=O)Nc1ccccc1F)C1CCOCC1 (single isomer, unassigned) [Example 638, 3-(4-(ethyl(tetrahydro-2H-pyran-4-yl)amino)-3-(3-(2-fluorophenyl)ureido)phenyl) butanoic acid]
< 5	CCC(CC(=O)O)c1cc(F)c(N(CC(C)C)CC(C)C)c(Nc2ccc3c(c2)OC(F)(F)O3)c1 (single isomer, unassigned) [Example 101, 3-(3-((2,2-difluorobenzo [d][1,3]dioxol-5-yl)amino)-4-(diisobutylamino)-5-fluorophenyl)pentanoic acid]
< 50	Cc1cc(CC(=O)Nc2cc(C(CC(=O)O)C3CC3)ccc2N(CC(C)C)C2CCCCC2)no1 (single isomer, unassigned) [Example 1251, 3-(4-(Cyclohexyl(isobutyl)amino)-3-(2-(5-methylisoxazol-3-yl)acetamido)phenyl)-3-cyclopropylpropanoic acid]
< 50	CCOc1ccc(CC(=O)Nc2cc(C(COC)CC(=O)O)cc(F)c2N(CC(C)C)CC(C)C)cc1 (single isomer, unassigned) [Example 1181, 3-(4-(Diisobutylamino)-3-(2-(4-ethoxyphenyl)acetamido)-5-fluorophenyl)-4-methoxybutanoic acid]
< 5	CCC(CC(=O)O)c1ccc(N(CC(C)C)C2CCCCC2)c(NC(=O)Cc2ccc(Cl)cc2F)c1 (single isomer, unassigned) [Example 1096 E1]

IC50 [nM]	SMILES
> 50	CCOc1ncc(Nc2cc([C@@H](CC)CC(=O)O)ccc2N(CC2CC2)CC(C)(C)O)cn1 (single isomer, unassigned) [Example 270]
> 50	COCC(CC(=O)O)c1ccc(N(CC2CC2)C2CCOCC2)c(Nc2ccc(Cl)c(OCC(F)(F)F)c2)c1 (single isomer, unassigned) [Example 682, 3-(3-((4-chloro-3-(2,2,2-trifluoroethoxy)phenyl)amino)-4-((cyclopropylmethyl) (tetrahydro-2H-pyran-4-yl)amino)phenyl)-4-methoxybutanoic acid]
< 5	CCC(CC(=O)O)c1cc(NC(=O)Nc2cnc(OC)nc2)c(N(CC(C)C)CC(C)C)cc1F (racemic) [Example 1140, (±)-3-(4-(Diisobutylamino)-2-fluoro-5-(3-(2-methoxypyrimidin-5-yl)ureido)phenyl)pentanoic acid]
< 5	CCN(c1ccc(C(C)CC(=O)O)cc1Nc1ccc(Cl)cc1)C1CCOCC1 (single isomer, unassigned) [Example 612 E1, 3-(3-((4-Chlorophenyl)amino)-4-(ethyl(tetrahydro-2H-pyran-4-yl)amino)phenyl)butanoic acid]
< 50	COCC(CC(=O)O)c1cc(F)c(N(CC(C)C)C2CCCCC2)c(NC(=O)Nc2ccc(OC(F)(F)F)cc2)c1 (single isomer, unassigned) [Example 1154, 3-(4-(cyclohexyl(isobutyl)amino)-3-fluoro-5-(3-(4-(trifluoromethoxy)phenyl)ureido)phenyl)-4-methoxybutanoic acid]
< 50	CCN(c1ccc(C(C)CC(=O)O)cc1Nc1cnc(OCC2CC2)nc1)C1CCOCC1 (single isomer, unassigned) [Example 614, 3-(3-((2-(cyclopropylmethoxy)pyrimidin-5-yl)amino)-4-(ethyl(tetrahydro-2H-pyran-4-yl)amino)phenyl)butanoic acid]
> 50	CC[C@H](CC(=O)O)c1ccc(N(CC(C)C)C2CCS(=O)(=O)CC2)c(NC(=O)Nc2ccc(C)cc2)c1 (single isomer, unassigned) [Example 209]
> 50	CCC(CC(=O)O)c1cc(F)c(N(CC(C)C)CC(C)C)c(Nc2ccc(OCC(F)(F)F)cc2)c1 (single isomer, unassigned) [Example 98, 3-(4-(diisobutylamino)-3-fluoro-5-((4-(2,2,2-trifluoroethoxy)phenyl)amino)phenyl)pentanoic acid]
> 50	CC[C@@H](CC(=O)O)c1ccc(N(CC(C)(C)O)C2CCOCC2)c(NC(=O)Nc2ccc(C)cc2)c1 (single isomer, unassigned) [Example 207]
< 5	CCOc1ncc(Nc2cc(C(CC)CC(=O)O)ccc2N(CC)C2CCCOC2)cn1 (single isomer, unassigned) [Example 69, 3-(3-((2-ethoxypyrimidin-5-yl)amino)-4-(ethyl(tetrahydro-2H-pyran-3-yl)amino)phenyl)pentanoic acid]
> 50	CC[C@H](CC(=O)O)c1ccc(N(CC(C)(C)O)C2CCOCC2)c(NC(=O)Nc2ccc(C)cc2)c1 (single isomer, unassigned) [Example 208]
< 50	CC(C)CN(CC(C)C)c1ccc(C(C)(C)CC(=O)O)cc1Nc1ccc2c(c1)OC(F)(F)O2 [Example 147, 3-(3-((2,2-difluorobenzo[d][1,3]dioxol-5-yl)amino)-4-(diisobutylamino)phenyl)-3-methylbutanoic acid]
< 50	CCOc1ccc(NC(=O)Nc2cc(C(C)CC(=O)O)ccc2N(CC(C)C)C2CCOCC2)cc1 (single isomer, unassigned) [Example 960, 3-(3-(3-(4-ethoxyphenyl)ureido)-4-(isobutyl(tetrahydro-2H-pyran-4-yl)amino)phenyl)butanoic acid]
< 50	CC[C@H](CC(=O)O)c1ccc(N(CC(C)C)C2CCS(=O)(=O)CC2)c(Nc2ccc3sc(C)nc3c2)c1 [Example 214, 3-(4-((1,1-Dioxidotetrahydro-2H-thiopyran-4-yl)(isobutyl)amino)-3-((2-methylbenzo[d]thiazol-5-yl)amino)phenyl)pentanoic acid]
< 5	CCCN(c1ccc([C@@H](CC)CC(=O)O)cc1Nc1ccc(Cl)cc1)C1CCOCC1 (single isomer, unassigned) [Example 541]
> 50	CCOc1ncc(Nc2cc(C(C)(C)CC(=O)O)ccc2N2C[C@@H](C)O[C@@H](C)C2)cn1 [Example 736, 3-(4-((2S,6R)-2,6-dimethylmorpholino)-3-((2-ethoxypyrimidin-5-yl)amino)phenyl)-3-methylbutanoic acid]
> 50	CCC(CC(=O)O)c1ccc(N2CCC[C@H]2C(C)(C)O)c(Nc2ccnc(N3CCOCC3)n2)c1 (single isomer, unassigned) [Example 817]
< 5	CC[C@H](CC(=O)O)c1ccc(N(CC(C)(C)O)C2CCCCC2)c(Nc2ccc(C#N)cc2)c1 (single isomer, unassigned) [Example 238]
